Assay results: US20260240862A1, “COMBINATION OF ROGINOLISIB AND BCL-2 INHIBITOR IN THE TREATMENT OF HAEMATOLOGICAL MALIGNANCY” (IONCTURA SA, priority 2023, published 2026)

Tests used:
JVM2 (MCL) = assay: MTT antiproliferation assay, combination of Compound 1 and BCL-2 inhibitor, Chou-Talalay Combination Index; assay type: cell-based; conditions: BCL-2 inhibitor in combination with Compound 1, 72 hours
Method: (§1) Venetoclax, S55746, S64315, and S63845, were used at a maximum concentration of 10 μM, following an eight fold dose response based on 1:4 compound dilutions plus an untreated control.
(§2) Cells were incubated for 72 hours at 37° C. and 5% CO2. The antiproliferative effect of single and combination treatments were determined by adding 20 μL MTT [3-(4,5-dimethylthiazolyl-2)-2, 5-diphenyltetrazoliumbromide]reagent (Sigma Aldrich, Buchs, Switzerland) to each well and the plates were incubated at 37° C. for 4 hours, followed by adding 50 μL of sodium dodecyl sulfate (SDS) (250 μM SDS, 0.21% fuming HCl) lysis buffer. The lysed cells were kept overnight, and then the absorbance was read at 570 nm using the Cytation 3 instrument (BioTek, Winoosku, VT, USA). […] The effect of the combinations was defined as strongly synergistic for CI values below <0.3, synergistic for CI values between 0.3 and 0.9, additive for CI values between 0.9 and 1.1, and antagonistic for CI values >1.1.

TMD8 (DLBCL) = assay: as above; assay type: cell-based; conditions: BCL-2 inhibitor in combination with Compound 1, 72 hours
Method: as §1, §2

MEC1 (CLL) = assay: as above; assay type: cell-based; conditions: BCL-2 inhibitor in combination with Compound 1, 72 hours
Method: as §1, §2

DNMT = conditions: more than that of azacytidine (Zhang 2022); cited from earlier work
Granta519 (MCL) = assay: MTT antiproliferation assay, combination of Compound 1 and BCL-2 inhibitor, Chou-Talalay Combination Index; assay type: cell-based; conditions: BCL-2 inhibitor in combination with Compound 1, 72 hours
Method: as §1, §2

MJ (CTCL) = assay: as above; assay type: cell-based; conditions: BCL-2 inhibitor in combination with Compound 1, 72 hours
Method: as §1, §2

SP49 (MCL) = assay: as above; assay type: cell-based; conditions: BCL-2 inhibitor in combination with Compound 1, 72 hours
Method: as §1, §2

Structure (SMILES) | CI value (median) (JVM2 (MCL)) | CI value (median) (TMD8 (DLBCL)) | CI value (median) (MEC1 (CLL)) | inhibitory activity of DNMT relative to azacytidine (DNMT) [times] | CI value (median) (Granta519 (MCL)) | CI value (median) (MJ (CTCL)) | CI value (median) (SP49 (MCL))
O=C(c1cc(-c2cc3c(cc2C(=O)N2Cc4ccccc4C[C@H]2CN2CCOCC2)OCO3)n2c1CCCC2)N(c1ccccc1)c1ccc(O)cc1 [Compound S55746, (S)—N-(4-hydroxyphenyl)-3-(6-(3-(morpholinomethyl)-1,2,3,4-tetrahydroisoquinoline-2-carbonyl)benzo[d][1,3]dioxol-5-yl)-N-phenyl-5,6,7,8-tetrahydroindolizine-1-carboxamide] | 0.46 | 0.4 | 0.21 |  |  |  | 
Nc1ncn([C@H]2C[C@H](O)[C@@H](CO)O2)c(=O)n1 [Decitabine, 5-aza-2′-deoxycytidine] |  |  |  | 30 |  |  | 
Cc1c(-c2c(-c3ccc(F)o3)sc3ncnc(O[C@H](Cc4ccccc4OCc4ccnn4CC(F)(F)F)C(=O)O)c23)ccc(OCCN2CCN(C)CC2)c1Cl (atropisomer, axis not shown) [Compound S63845, (R)-2-((5-(3-chloro-2-methyl-4-(2-(4-methylpiperazin-1-yl)ethoxy)phenyl)-6-(5-fluorofuran-2-yl)thieno[2,3-d]pyrimidin-4-yl)oxy)-3-(2-((1-(2,2,2-trifluoroethyl)-1H-pyrazol-5-yl)methoxy)phenyl)propanoic acid] | 0.33 | 0.86 |  |  | 0.47 | 0.67 | 
COc1ccccc1-c1nccc(COc2ccccc2C[C@@H](Oc2ncnc3sc(-c4ccc(F)cc4)c(-c4ccc(OCCN5CCN(C)CC5)c(Cl)c4C)c23)C(=O)O)n1 (atropisomer, axis not shown) [Compound S64315, (R)-2-((5-(3-chloro-2-methyl-4-(2-(4-methylpiperazin-1-yl)ethoxy)phenyl)-6-(4-fluorophenyl)thieno[2,3-d]pyrimidin-4-yl)oxy)-3-(2-((2-(2-methoxyphenyl)pyrimidin-4-yl)methoxy)phenyl)propanoic acid] | 0.24 | 0.23 | 0.88 |  |  |  | 0.71
CC1(C)CCC(CN2CCN(c3ccc(C(=O)NS(=O)(=O)c4ccc(NCC5CCOCC5)c([N+](=O)[O-])c4)c(Oc4cnc5[nH]ccc5c4)c3)CC2)=C(c2ccc(Cl)cc2)C1 [Venetoclax, 4-(4-{[2-(4-Chlorophenyl)-4,4-dimethyl-1-cyclohexen-1-yl]methyl}-1-piperazinyl)-N-({3-nitro-4-[(tetrahydro-2H-pyran-4-ylmethyl)amino]phenyl}sulfonyl)-2-(1H-pyrrolo[2,3-b]pyridin-5-yloxy)benzamide] | 0.15 |  | 0.05 |  | 0.81 | 0.47 | 
